Assay results as given in US6417212B1, “Modulators of peroxisome proliferator activated receptors” (Eli Lilly & Company, priority 1999, dated 2002).

Key:
huPPARγ [1] = biological target: T1, huPPARγ (Homo sapiens, UniProt P37231); assay: DNA-dependent binding (ABCD binding), SPA, huPPARγ; conditions: displacement of tritium-labeled PPARγ agonist radioligand
T1 sequence (P37231 1-505): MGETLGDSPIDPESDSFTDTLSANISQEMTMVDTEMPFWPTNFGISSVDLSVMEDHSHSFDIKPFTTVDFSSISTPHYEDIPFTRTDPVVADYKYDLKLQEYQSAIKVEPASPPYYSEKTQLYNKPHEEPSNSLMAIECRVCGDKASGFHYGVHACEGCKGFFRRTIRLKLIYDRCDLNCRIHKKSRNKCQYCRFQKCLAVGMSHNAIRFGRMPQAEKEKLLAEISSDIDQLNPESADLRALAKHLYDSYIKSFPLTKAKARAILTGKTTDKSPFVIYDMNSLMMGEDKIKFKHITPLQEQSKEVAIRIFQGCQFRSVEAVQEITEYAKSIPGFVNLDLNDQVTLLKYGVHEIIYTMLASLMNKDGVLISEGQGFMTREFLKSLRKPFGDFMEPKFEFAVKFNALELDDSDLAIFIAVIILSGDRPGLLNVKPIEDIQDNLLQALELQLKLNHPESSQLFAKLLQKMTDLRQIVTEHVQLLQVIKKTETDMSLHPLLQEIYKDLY
T1 sequence (P19793 1-462 partner): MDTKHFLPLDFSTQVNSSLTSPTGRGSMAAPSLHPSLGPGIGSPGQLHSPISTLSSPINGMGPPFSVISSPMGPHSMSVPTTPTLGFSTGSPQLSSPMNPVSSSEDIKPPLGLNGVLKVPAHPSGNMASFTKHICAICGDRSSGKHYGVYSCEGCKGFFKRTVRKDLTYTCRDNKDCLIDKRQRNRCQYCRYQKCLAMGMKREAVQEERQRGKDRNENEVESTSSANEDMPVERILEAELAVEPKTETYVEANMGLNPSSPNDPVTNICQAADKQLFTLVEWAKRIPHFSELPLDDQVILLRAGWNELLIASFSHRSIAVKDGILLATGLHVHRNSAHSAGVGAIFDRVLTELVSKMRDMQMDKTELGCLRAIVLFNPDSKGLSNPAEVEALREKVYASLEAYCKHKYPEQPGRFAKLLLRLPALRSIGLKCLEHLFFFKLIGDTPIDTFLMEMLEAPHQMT
Description: (§1) DNA-dependent binding (ABCD binding) was carried out using SPA technology with PPAR receptors. Tritium-labeled PPARγ and PPARα agonists were used as radioligands for generating displacement curves and IC50 values with compounds of the invention. Cotransfection assays were carried out in CV-1 cells. The reporter plasmid contained an acylCoA oxidase (AOX) PPRE and TK promoter upstream of the luciferase reporter cDNA. Appropriate PPARs and RXRα were constitutively expressed using plasmids containing the CMV promoter. […] In order to eliminate such interference, a GAL4 chimeric system was used in which the DNA binding domain of the transfected PPAR was replaced by that of GAL4, and the GAL4 response element was utilized in place of the AOX PPRE. Cotransfection efficacy was determined relative to PPARα agonist and PPARβ agonist reference molecules. Efficacies were determined by computer fit to a concentration-response curve, or in some cases at a single high concentration of agonist (10 μM). For binding or cotransfection studies with receptors other than PPARs, similar assays were carried out using appropriate ligands, receptors, reporter constructs, etc., for that particular receptor.
(§2) These studies were carried out to evaluate the ability of compounds of the invention to bind to and/or activate various nuclear transcription factors, particularly huPPARα (“hu” indicates “human”) and huPPARγ. These studies provide in vitro data concerning efficacy and selectivity of compounds of the invention. Furthermore, binding and cotransfection data for compounds of the invention were compared with corresponding data for marketed compounds that act on either huPPARα or huPPARγ.

Hu apoAI transgenic mice = assay: Evaluation of triglyceride and cholesterol levels in Hu apoAI transgenic mice; format: in vivo; conditions: Mus musculus, 168 h, 30 mg/kg daily oral gavage for 7 days; for change in vivo at 30 mg/kg: pooled sera, read-out: % HDLc Increase (serum, FPLC area under the curve, over vehicle); for inhibition in vivo at 30 mg/kg: serum 3 hours after dosing on day 7, read-out: % Triglyceride Decrease (serum, over mice receiving vehicle)
Description: After an acclimation period of 2 weeks, animals were individually identified by ear notches, weighed, and assigned to groups based on body weight. Beginning the following morning, mice were dosed daily by oral gavage for 7 days using a 20 gauge, 11⁄2 curved disposable feeding needle (Popper & Sons). […] Prior to termination on day 7, mice were weighed and dosed. Three hours after dosing, animals were anesthetized by inhalation of isoflurane (2-4%; Abbott Laboratories, Chicago, Ill.) and blood obtained via cardiac puncture (0.7-1.0 ml). Whole blood was transferred to serum separator tubes (Vacutainer SST), chilled on ice, and permitted to clot. Serum was obtained after centrifugation at 4° C. and frozen until analysis for triglycerides, total cholesterol, compound levels, and serum lipoprotein profile by fast protein liquid chromatography (FPLC) coupled to an inline detection system. After sacrifice by cervical dislocation, the liver, heart and epididymal fat pads were excised and weighed. […] The percentage decrease in triglyceride serum levels in mice receiving a compound of the invention over mice receiving vehicle are reported in Table 2. […] The absorbance of the dye produced is linearly related to the analyte in the sample. The assays were further modified in our laboratory for use in a 96 well format. […] An additional aliquot of sample, pipetted to a third well and diluted in 200 μl water, provided a blank for each specimen. […] All samples from an experiment were assayed at the same time to minimize inter-assay variability. Serum lipoproteins were separated and cholesterol quantitated with an in-line detection system. […] The change in voltage corresponding to change in cholesterol concentration was plotted vs time and the area under the curve corresponding to the elution of VLDL, LDL and HDL was calculated using Perkin Elmer Turbochrome software.

huPPARγ [2] = biological target: T1, huPPARγ; assay: Cotransfection assay in CV-1 cells, huPPARγ; format: cell-based; design: expressed in transfected cells; host or cells: CV-1 cells; conditions: AOX PPRE luciferase reporter, relative to agonist reference molecule, read-out: huPPARγ CTF Efficacy
Description: as §1, with “Tritium-labeled PPARγ and PPARα agonists were used as radioligands for generating displacement curves and IC50 values with compounds of the invention.” left out, “Cotransfection efficacy was determined relative to PPARα agonist and PPARβ agonist reference molecules.” left out
as §2

| Compound | IC50 (huPPARγ [1]) [µM] | change in vivo at 30 mg/kg (Hu apoAI transgenic mice) [%] | inhibition in vivo at 30 mg/kg (Hu apoAI transgenic mice) [%] | Emax (huPPARγ [2]) [%] |
| --- | --- | --- | --- | --- |
| Cc1oc(-c2ccc(-c3c(F)cccc3F)cc2)nc1CCOc1ccc(OC(C)(C)C(=O)O)cc1 [Example 14, 2-(4-{2-[2-(2′,6′-Difluorobiphenyl-4-yl)-5-methyloxazol-4-yl]-ethoxy}-phenoxy)-2-methylpropionic acid] | 0.457 | 66 | 67.5 | 84 |
| Cc1oc(-c2ccc(-c3ccccc3)cc2)nc1CCOc1cccc(OC(C)(C)C(=O)O)c1 [Example 21, 2-{3-[2-(2-Biphenyl-4-yl-5-methyloxazol-4-yl)ethoxy]phenoxy}-2-methylpropionic acid] | 0.532 | 204 | 60.5 | 70 |
| Cc1sc(-c2cccc(-c3ccccc3)c2)nc1CCOc1ccc(OC(C)(C)C(=O)O)cc1 [Example 46, 2-{4-[2-(2-Biphenyl-3-yl-5-methyl-thiazol-4-yl)-ethoxy]-phenoxy}-2-methyl-propionic acid] | 0.268 | 26 | 16.4 | 142 |
